From the supplement of paper PMC10331698
± gives the standard deviation of the averaged measurements.

Legend:
Assay in all cases: level (log10 ratio to DMSO vehicle control); higher = higher biomarker level / cell amount than vehicle control
Conditions in all cases: in DMSO
[1] = compound: N=C(N)C(F)(F)C(F)(F)C(F)(F)C(F)(F)C(F)(F)C(F)(F)C(F)(F)F [Perfluorooctanamidine]
Procedure: (§1)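 BioMAP Diversity Plus panel of 12 human primary cell co-culture systems (3C, 4H, LPS, SAg, BT, BF4T, BE3C, CASM3C, HDF3CGF, KF3CT, MyoF, Mphg). Compounds were added 1 h before stimulation and left for 24 h (MyoF 48 h; BT 72 h for soluble read-outs or 6 d for IgG). Biomarkers were read by ELISA, cytotoxicity by SRB, PBMC viability and proliferation by Alamar Blue. Each well value was divided by the mean of 8 DMSO control wells on the same plate and log10 transformed; duplicate blinded samples were tested at 4 concentrations.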

[2] = compound: O=C(O)C(F)(F)C(F)(F)C(F)(F)C(F)(F)C(F)(F)F [Perfluorohexanoic acid]
Procedure: as §1

[3] = compound: O=C(O)CCC(F)(F)C(F)(F)C(F)(F)F [3:3 Fluorotelomer carboxylic acid]
Procedure: as §1

[4] = compound: OCC(F)(F)C(F)(F)C(F)(F)C(F)(F)C(F)(F)C(F)F [1H,1H,7H-Dodecafluoro-1-heptanol]
Procedure: as §1

Test System | level (log10) ([1]; 6700 nM) | level (log10) ([1]; 20000 nM) | level (log10) ([1]; 60000 nM) | level (log10) ([2]; 6700 nM) | level (log10) ([2]; 20000 nM) | level (log10) ([2]; 60000 nM) | level (log10) ([3]; 6700 nM) | level (log10) ([3]; 20000 nM) | level (log10) ([3]; 60000 nM) | level (log10) ([4]; 6700 nM) | level (log10) ([4]; 20000 nM) | level (log10) ([4]; 60000 nM)
KF3CT:CXCL8/IL-8 | 0.0135 ± 0.021 | 0.0305 ± 0.018 | 0.043 | -0.005 ± 0.014 | 0.009 ± 0.04 | 0.031 ± 0.013 | 0.0005 ± 0.022 | -0.0035 ± 0.0092 | -0.0005 ± 0.0064 | 0.017 ± 0.0028 | 0.01 ± 0.025 | 0.0165 ± 0.016
3C:CCL2/MCP-1 | 0.0185 ± 0.012 | 0.0085 ± 0.011 | 0.062 | -0.006 ± 0.0028 | -0.0145 ± 0.005 | 0.0115 ± 0.022 | -0.011 ± 0.013 | -0.0025 ± 0.005 | 0.022 ± 0.037 | 0.0225 ± 0.021 | 0.0145 ± 0.023 | 0.0325 ± 0.012
KF3CT:CCL2/MCP-1 | -0.0075 ± 0.0064 | 0.029 ± 0.0099 | 0.092 | -0.0155 ± 0.019 | -0.0385 ± 0.018 | 0.001 ± 0.052 | -0.005 ± 0.025 | -0.0135 ± 0.016 | 0.0225 ± 0.046 | -0.0055 ± 0.021 | -0.0155 ± 0.015 | 0.004 ± 0.028
CASM3C:IL-6 | -0.046 ± 0.023 | -0.041 ± 0.035 | 0.041 | -0.0075 ± 0.042 | -0.0155 ± 0.0021 | -0.0125 ± 0.053 | -0.029 ± 0.016 | -0.0295 ± 0.015 | 0.0085 ± 0.018 | -0.0165 ± 0.035 | -0.024 ± 0.021 | 0.008 ± 0.028
3C:CD141/Thrombomodulin | -0.015 ± 0.031 | -0.021 ± 0.024 | -0.013 | -0.0205 ± 0.005 | -0.022 ± 0.027 | -0.006 | -0.0105 ± 0.011 | -0.018 ± 0.047 | -0.006 ± 0.013 | -0.007 ± 0.057 | 0.0065 ± 0.044 | -0.017 ± 0.058
KF3CT:CXCL9/MIG | -0.0015 ± 0.011 | -0.0005 ± 0.0092 | 0.015 | 0.0075 ± 0.0064 | 0.0035 ± 0.012 | 0.0095 ± 0.012 | 0 ± 0.0099 | 0.0055 ± 0.015 | 0.005 ± 0.0028 | 0.0135 ± 0.012 | 0.0065 ± 0.0035 | 0.0015 ± 0.018
CASM3C:CD141/Thrombomodulin | -0.008 ± 0.016 | -0.0205 ± 0.005 | 0.043 | 0.021 ± 0.021 | -0.0105 ± 0.021 | 0.0005 ± 0.044 | -0.0065 ± 0.005 | -0.0085 ± 0.011 | -0.0185 ± 0.0035 | 0.0095 ± 0.052 | 0.0055 ± 0.0064 | -0.0055 ± 0.047
lMphg:CD106/VCAM-1 | -0.006 ± 0.0028 | -0.008 ± 0.0057 | -0.08 | 0.0065 ± 0.016 | -0.0055 ± 0.011 | 0.0005 ± 0.018 | 0.002 ± 0.013 | 0.009 ± 0.0014 | 0.0045 ± 0.013 | -0.0115 ± 0.042 | -0.015 ± 0.037 | -0.027 ± 0.047
HDF3CGF:CCL2/MCP-1 | -0.0075 ± 0.0035 | -0.005 ± 0.018 | -0.068 | -0.0145 ± 0.00071 | -0.009 ± 0.03 | -0.0205 ± 0.04 | 0.004 ± 0.013 | 0.0005 ± 0.0035 | 0.015 ± 0.041 | 0.012 ± 0.024 | 0.0105 ± 0.03 | 0.018 ± 0.017
MyoF:SRB | 0.007 ± 0.0028 | -0.003 ± 0.0042 | 0.013 | 0.009 ± 0.0014 | 0.008 ± 0.0085 | 0.007 ± 0.0057 | 0.0005 ± 0.0021 | 0 ± 0.0028 | -0.0065 ± 0.012 | 0.001 ± 0.0085 | -0.0025 ± 0.00071 | -0.007 ± 0.0085
HDF3CGF:TIMP-1 | 0.013 ± 0.042 | 0.018 ± 0.05 | 0.092 | -0.0005 ± 0.0078 | -0.002 ± 0.016 | 0.0025 ± 0.015 | 0.0025 ± 0.019 | 0.004 | 0.0015 ± 0.0035 | -0.015 ± 0.027 | -0.0055 ± 0.033 | 0.011 ± 0.044
CASM3C:Serum Amyloid A | 0.001 ± 0.0014 | -0.0085 ± 0.018 | 0.053 | 0.0315 ± 0.012 | -0.003 ± 0.0028 | 0.01 ± 0.047 | -0.0055 ± 0.029 | -0.004 ± 0.0042 | -0.0005 ± 0.032 | -0.019 ± 0.045 | -0.01 ± 0.031 | -0.0275 ± 0.037
MyoF:MMP-1 | -0.025 ± 0.024 | -0.01 | 0.062 | -0.0115 ± 0.0035 | -0.0055 ± 0.019 | 0.0235 ± 0.025 | -0.0385 ± 0.052 | -0.0305 ± 0.013 | 0.01 ± 0.028 | -0.025 ± 0.035 | -0.029 ± 0.021 | -0.0015 ± 0.012
HDF3CGF:Collagen III | -0.047 ± 0.018 | -0.196 ± 0.045 | -0.172 | 0.0515 ± 0.013 | 0.0305 ± 0.0092 | -0.0245 ± 0.071 | -0.012 ± 0.017 | -0.007 ± 0.025 | 0.0245 ± 0.054 | -0.002 ± 0.018 | -0.0065 ± 0.0078 | 0.0145 ± 0.015
3C:CD106/VCAM-1 | -0.017 ± 0.028 | -0.037 ± 0.031 | -0.088 | -0.002 ± 0.018 | -0.0025 ± 0.029 | 0.005 ± 0.044 | -0.0135 ± 0.022 | -0.028 ± 0.024 | -0.019 ± 0.0085 | 0.001 ± 0.0042 | -0.0245 ± 0.032 | -0.0195 ± 0.016
CASM3C:LDLR | 0.012 ± 0.013 | 0.036 ± 0.0085 | 0.108 | 0.001 ± 0.0028 | -0.0065 ± 0.029 | -0.0025 ± 0.039 | -0.0165 ± 0.00071 | -0.0105 ± 0.0035 | 0.011 ± 0.027 | 0.0045 ± 0.05 | -0.0135 ± 0.028 | 0.014 ± 0.024
CASM3C:HLA-DR | -0.0335 ± 0.016 | -0.0655 ± 0.011 | -0.022 | 0.004 ± 0.0099 | -0.004 ± 0.0057 | -0.004 ± 0.011 | 0.007 ± 0.0085 | 0.006 ± 0.023 | -0.009 ± 0.028 | -0.0045 ± 0.03 | 0.0075 ± 0.0064 | 0.0045 ± 0.0021
HDF3CGF:M-CSF | -0.017 ± 0.014 | -0.0485 ± 0.018 | -0.177 | -0.015 ± 0.059 | 0.013 ± 0.021 | -0.006 ± 0.05 | 0.002 ± 0.0099 | -0.004 ± 0.0042 | 0.001 ± 0.013 | -0.0025 ± 0.018 | -0.0055 ± 0.00071 | -0.0045 ± 0.0035
KF3CT:IL-1alpha | -0.005 ± 0.04 | 0.0115 ± 0.011 | 0.03 | -0.0045 ± 0.011 | -0.0185 ± 0.011 | 0.008 ± 0.021 | -0.0065 ± 0.059 | 0.0035 ± 0.023 | 0.0135 ± 0.019 | -0.016 ± 0.025 | -0.0195 ± 0.032 | -0.0115 ± 0.043
BE3C:SRB | -0.0075 ± 0.005 | -0.001 ± 0.016 | 0.009 | -0.001 | -0.006 ± 0.0014 | 0.009 ± 0.018 | -0.0065 ± 0.0064 | -0.0065 ± 0.005 | 0.001 ± 0.013 | 0.001 ± 0.0071 | -0.009 ± 0.011 | 0.0025 ± 0.00071
lMphg:M-CSF | -0.0155 ± 0.016 | -0.0015 ± 0.0021 | -0.001 | 0.0005 ± 0.028 | -0.011 ± 0.028 | -0.023 ± 0.0014 | -0.021 ± 0.024 | -0.008 ± 0.0085 | -0.0115 ± 0.0021 | -0.0115 ± 0.005 | -0.0035 ± 0.0078 | 0.0085 ± 0.044
KF3CT:MMP-9 | -0.006 ± 0.0028 | -0.0275 ± 0.023 | -0.032 | -0.009 ± 0.014 | -0.0055 ± 0.0035 | 0.017 ± 0.016 | 0.001 ± 0.0028 | -0.001 ± 0.0042 | 0.003 ± 0.0042 | 0.0075 ± 0.005 | -0.003 ± 0.011 | 0.011 ± 0.0014
BE3C:MMP-9 | -0.0115 ± 0.005 | -0.015 ± 0.023 | -0.001 | -0.0155 ± 0.018 | -0.005 ± 0.0071 | 0.0145 ± 0.013 | -0.0025 ± 0.022 | 0.0085 ± 0.0078 | -0.0085 ± 0.025 | -0.009 ± 0.0028 | -0.0105 ± 0.00071 | -0.02 ± 0.0028
lMphg:CCL3/MIP-1alpha | -0.029 ± 0.03 | 0.0015 ± 0.035 | 0.055 | 0.006 | -0.009 ± 0.011 | 0.0025 ± 0.011 | -0.0105 ± 0.047 | -0.027 ± 0.047 | 0.002 ± 0.02 | 0.0185 ± 0.063 | 0.0115 ± 0.019 | 0.044 ± 0.0085
